Where two headings read alike, the source gives them in different places.
Biological target: T1, his-galectin-3 (Homo sapiens, UniProt P17931)
T1 construct: purchased Abcam
Test: TR-FRET assay (in vitro galectin-3 binding inhibitory activity test)
Conditions: compound at 20 μM, 60 nM his-galectin-3, 15 nM biotin-ASF
Description: TR-FRET Assay (In Vitro Galectin-3 Binding Inhibitory Activity Test)
TR-FRET assay was performed in ½ Area Plate-96 (PerkinElmer). Final concentrations of components in the assay were 60 nM his-galectin-3 (Abcam), 15 nM biotin-ASF (Axxora), 2 nM Mab anti-6×His Tb (Cisbio) and 20 nM SA-d2 (Cisbio). The reaction was performed in a buffer containing 25 mM HEPES, 100 mM NaCl, 0.005% Tween 20 and 0.05% BSA. 20 μL his-galectin-3 and 1 μL compound were mixed first, and then 20 μL biotin-ASF, 5 μL anti-His Tb and 5 μL SA-d2 were added in order. After incubation for at least 3.5 hours at RT, TR-FRET signals were measured at 615/665 nm […] wavelengths using a VICTOR Nivo (PerkinElmer). The positive control used DMSO instead of the compound, and the negative control excluded ASF-biotin. N-acetyl-D-lactosamine (LacNAc), an endogenous ligand unit of galectin-3, was evaluated together as a control substance to compare galectin-3 binding inhibitory activity.

[1] = Table 1, read-out: % Inhibitory activity (at 20 μM)
[2] = Table 2, read-out: % Inhibitory activity (at 20 μM)
[3] = Table 3, found values, read-out: % Inhibitory activity (at 20 μM)
[4] = read-out: % Inhibitory activity (at 20 μM), Table 1

T1 sequence (P17931 whole entry): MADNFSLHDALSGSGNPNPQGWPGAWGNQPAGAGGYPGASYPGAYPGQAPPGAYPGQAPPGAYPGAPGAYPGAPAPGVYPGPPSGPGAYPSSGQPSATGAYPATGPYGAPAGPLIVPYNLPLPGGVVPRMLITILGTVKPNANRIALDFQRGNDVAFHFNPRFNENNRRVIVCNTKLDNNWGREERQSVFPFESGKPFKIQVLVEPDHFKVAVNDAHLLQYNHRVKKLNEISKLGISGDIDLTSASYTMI

Row | inhibition at 20 µM [1] | inhibition at 20 µM [2] | SMILES | further results
1 | > 75% |  | O=C(N[C@@H]1CCO[C@]12O[C@H](CO)[C@H](O)[C@H](n1cc(-c3cc(F)c(F)c(F)c3)nn1)[C@H]2O)c1cccc(Br)c1 [Compound A150, 3-bromo-N-((4R,5S,7R,8R,9S,10R)-8,10-dihydroxy-7-(hydroxymethyl)-9-(4-(3,4,5-trifluorophenyl)-1H-1,2,3-triazol-1-yl)-1,6-dioxaspiro[4.5]decan-4-yl)benzamide] | 
2 |  | 50 to 75% | Cc1ccc2ccccc2c1C(=O)N[C@@H]1CCO[C@]12O[C@H](CO)[C@H](O)[C@H](n1cc(-c3cc(F)c(F)c(F)c3)nn1)[C@H]2O [Compound A240, N-((4R,5S,7R,8R,9S,10R)-8,10-dihydroxy-7-(hydroxymethyl)-9-(4-(3,4,5-trifluorophenyl)-1H-1,2,3-triazol-1-yl)-1,6-dioxaspiro[4.5]decan-4-yl)-2-methyl-1-naphthamide] | inhibition at 20 µM [3]: 72.1%
3 |  | 25 to 50% | CO[C@@H]1[C@@H](n2cc(-c3cc(F)c(F)c(F)c3)nn2)[C@@H](O)[C@@H](CO)O[C@@]12CCCO2 [Compound A257, (5S,7R,8R,9S,10R)-7-(hydroxymethyl)-10-methoxy-9-(4-(3,4,5-trifluorophenyl)-1H-1,2,3-triazol-1-yl)-1,6-dioxaspiro[4.5]decan-8-ol] | inhibition at 20 µM [3]: 39.2%
4 | 25 to 50% |  | OC[C@H]1O[C@]2(CCCO2)[C@H](O)[C@@H](n2cc(-c3cc(F)c(F)c(F)c3)nn2)[C@H]1O [Compound A100, (5R,7R,8R,9S,10R)-7-(hydroxymethyl)-9-(4-(3,4,5-trifluorophenyl)-1H-1,2,3-triazol-1-yl)-1,6-dioxaspiro[4.5]decane-8,10-diol] | inhibition at 20 µM [3]: 48.1%
5 |  |  | C[C@@H](O[C@@H]1[C@@H](n2cc(-c3cc(F)c(F)c(F)c3)nn2)[C@@H](O)[C@@H](CO)O[C@@]12CCCCO2)C(=O)O [Compound A83, (R)-2-(((2R,3R,4S,5R,6S)-3-hydroxy-2-(hydroxymethyl)-4-(4-(3,4,5-trifluorophenyl)-1H-1,2,3-triazol-1-yl)-1,7-dioxaspiro[5.5]undecan-5-yl)oxy)propanoic acid] | inhibition at 20 µM [4]: 25 to 50%
6 |  | > 75% | O=C(N[C@@H]1CCO[C@]12O[C@H](CO)[C@H](O)[C@H](n1cc(-c3cc(F)c(F)c(F)c3)nn1)[C@H]2O)c1cccc2ccncc12 [Compound A246, N-((4R,5S,7R,8R,9S,10R)-8,10-dihydroxy-7-(hydroxymethyl)-9-(4-(3,4,5-trifluorophenyl)-1H-1,2,3-triazol-1-yl)-1,6-dioxaspiro[4.5]decan-4-yl)isoquinoline-8-carboxamide] | 
7 |  | > 75% | O=C(N[C@@H]1CCO[C@]12O[C@H](CO)[C@H](O)[C@H](n1cc(-c3cc(F)c(F)c(F)c3)nn1)[C@H]2O)c1cc(Br)cc2ccccc12 [Compound A178, 3-bromo-N-((4R,5S,7R,8R,9S,10R)-8,10-dihydroxy-7-(hydroxymethyl)-9-(4-(3,4,5-trifluorophenyl)-1H-1,2,3-triazol-1-yl)-1,6-dioxaspiro[4.5]decan-4-yl)-1-naphthamide] | 
8 |  | 25 to 50% | O=C(N[C@@H]1CCO[C@]12O[C@H](CO)[C@H](O)[C@H](n1cc(-c3cc(F)c(F)c(F)c3)nn1)[C@H]2O)c1noc2cc(Cl)ccc12 [Compound A199, 6-chloro-N-((4R,5S,7R,8R,9S,10R)-8,10-dihydroxy-7-(hydroxymethyl)-9-(4-(3,4,5-trifluorophenyl)-1H-1,2,3-triazol-1-yl)-1,6-dioxaspiro[4.5]decan-4-yl)benzo[d]isoxazole-3-carboxamide] | 
9 |  |  | COc1ccc2c(c1)CCC1(O2)O[C@H](CO)[C@H](O)[C@H](n2cc(-c3cc(F)c(F)c(F)c3)nn2)[C@H]1O (single isomer, unassigned) [Compound A10, (3′R,4'S,5′R,6′R)-6′-(hydroxymethyl)-6-methoxy-4′-(4-(3,4,5-trifluorophenyl)-1H-1,2,3-triazol-1-yl)-3′,4′,5′,6′-tetrahydrospiro[chromane-2,2′-pyran]-3′,5′-diol] | % Inhibitory activity (at 20 μM) (Table 1): D (inhibition rate was less than 25%)
10 | 25 to 50% |  | COc1ccc2c(c1)CCC1(O2)O[C@H](CO)[C@H](O)[C@H](n2cc(-c3cc(F)c(F)c(F)c3)nn2)[C@H]1O (single isomer, unassigned) [Compound A11, (3′R,4'S,5′R,6′R)-6′-(hydroxymethyl)-6-methoxy-4′-(4-(3,4,5-trifluorophenyl)-1H-1,2,3-triazol-1-yl)-3′,4′,5′,6′-tetrahydrospiro[chromane-2,2′-pyran]-3′,5′-diol] | 
11 | 25 to 50% |  | OC[C@H]1O[C@@]2(CCCCO2)[C@H](OCc2cccnc2)[C@@H](n2cc(-c3cc(F)c(F)c(F)c3)nn2)[C@H]1O [Compound A58, (2R,3R,4S,5R,6S)-2-(hydroxymethyl)-5-(pyridin-3-ylmethoxy)-4-(4-(3,4,5-trifluorophenyl)-1H-1,2,3-triazol-1-yl)-1,7-dioxaspiro[5.5]undecan-3-ol] | 
12 | > 75% |  | O=C(Cc1cccc(Br)c1)N[C@@H]1CCO[C@]12O[C@H](CO)[C@H](O)[C@H](n1cc(-c3cc(F)c(F)c(F)c3)nn1)[C@H]2O [Compound A151, 2-(3-bromophenyl)-N-((4R,5S,7R,8R,9S,10R)-8,10-dihydroxy-7-(hydroxymethyl)-9-(4-(3,4,5-trifluorophenyl)-1H-1,2,3-triazol-1-yl)-1,6-dioxaspiro[4.5]decan-4-yl)acetamide] | 
13 |  | > 75% | O=C(N[C@@H]1CCO[C@]12O[C@H](CO)[C@H](O)[C@H](n1cc(-c3cc(F)c(F)c(F)c3)nn1)[C@H]2O)c1cccc(-c2ccccc2F)c1 [Compound A164, N-((4R,5S,7R,8R,9S,10R)-8,10-dihydroxy-7-(hydroxymethyl)-9-(4-(3,4,5-trifluorophenyl)-1H-1,2,3-triazol-1-yl)-1,6-dioxaspiro[4.5]decan-4-yl)-2′-fluoro-[1,1′-biphenyl]-3-carboxamide] | 
14 |  | 50 to 75% | O=C(N[C@@H]1CCO[C@]12O[C@H](CO)[C@H](O)[C@H](n1cc(-c3cc(F)c(F)c(F)c3)nn1)[C@H]2O)c1cccc2c1CCC2 [Compound A162, N-((4R,5S,7R,8R,9S,10R)-8,10-dihydroxy-7-(hydroxymethyl)-9-(4-(3,4,5-trifluorophenyl)-1H-1,2,3-triazol-1-yl)-1,6-dioxaspiro[4.5]decan-4-yl)-2,3-dihydro-1H-indene-4-carboxamide] | inhibition at 20 µM [3]: 69.9%
15 | 50 to 75% |  | CC(C(=O)N[C@@H]1CCO[C@]12O[C@H](CO)[C@H](O)[C@H](n1cc(-c3cc(F)c(F)c(F)c3)nn1)[C@H]2O)c1ccccc1 (stereo partly drawn) [Compound A137, N-((4R,5S,7R,8R,9S,10R)-8,10-dihydroxy-7-(hydroxymethyl)-9-(4-(3,4,5-trifluorophenyl)-1H-1,2,3-triazol-1-yl)-1,6-dioxaspiro[4.5]decan-4-yl)-2-phenylpropanamide] | 
16 |  |  | OC[C@H]1O[C@]2(OCC[C@H]2NCc2ccccc2)[C@H](O)[C@@H](n2cc(-c3cc(F)c(F)c(F)c3)nn2)[C@H]1O [Compound A105, (4R,5S,7R,8R,9S,10R)-4-(benzylamino)-7-(hydroxymethyl)-9-(4-(3,4,5-trifluorophenyl)-1H-1,2,3-triazol-1-yl)-1,6-dioxaspiro[4.5]decane-8,10-diol] | inhibition at 20 µM [4]: < 25%
17 | 25 to 50% |  | O=S1(=O)CCC(CO[C@@H]2[C@@H](n3cc(-c4cc(F)c(F)c(F)c4)nn3)[C@@H](O)[C@@H](CO)O[C@@]23CCCO3)CC1 [Compound A26, 4-((((5S,7R,8R,9S,10R)-8-hydroxy-7-(hydroxymethyl)-9-(4-(3,4,5-trifluorophenyl)-1H-1,2,3-triazol-1-yl)-1,6-dioxaspiro[4.5]decan-10-yl)oxy)methyl)tetrahydro-2H-thiopyran 1,1-dioxide] | 
18 | < 25% |  | OC[C@H]1O[C@]2(OCC[C@H]2NCc2c(O)ccc(F)c2F)[C@H](O)[C@@H](n2cc(-c3cc(F)c(F)c(F)c3)nn2)[C@H]1O [Compound A63, (4R,5S,7R,8R,9S,10R)-4-((2,3-difluoro-6-hydroxybenzyl)amino)-7-(hydroxymethyl)-9-(4-(3,4,5-trifluorophenyl)-1H-1,2,3-triazol-1-yl)-1,6-dioxaspiro[4.5]decane-8,10-diol] | 
19 |  | 50 to 75% | O=C(N[C@@H]1CCO[C@]12O[C@H](CO)[C@H](O)[C@H](n1cc(-c3cc(F)c(F)c(F)c3)nn1)[C@H]2O)c1cccc(-c2cccc(F)c2)c1 [Compound A165, N-((4R,5S,7R,8R,9S,10R)-8,10-dihydroxy-7-(hydroxymethyl)-9-(4-(3,4,5-trifluorophenyl)-1H-1,2,3-triazol-1-yl)-1,6-dioxaspiro[4.5]decan-4-yl)-3′-fluoro-[1,1′-biphenyl]-3-carboxamide] | 
20 | < 25% |  | O=C(CO[C@@H]1[C@@H](n2cc(-c3cc(F)c(F)c(F)c3)nn2)[C@@H](O)[C@@H](CO)O[C@@]12CCCO2)Nc1ccc(Cl)nn1 [Compound A29, N-(6-chloropyridazin-3-yl)-2-(((5S,7R,8R,9S,10R)-8-hydroxy-7-(hydroxymethyl)-9-(4-(3,4,5-trifluorophenyl)-1H-1,2,3-triazol-1-yl)-1,6-dioxaspiro[4.5]decan-10-yl)oxy)acetamide] | 

From US20250026778A1 (TIUMBIO CO., LTD., priority 2021, published 2025)
